Assay results from patent US8772283B2, “Imidazo-oxazine compound or salt thereof” (Taiho Pharmaceutical Co., Ltd., priority 2011, dated 2014).

Legend:
human AKT1 = human AKT1 (Homo sapiens (Human), UniProt P31749); experiment: AKT1 kinase activity inhibition (TR-FRET, biotinylated Crosstide substrate); type: biochemical; conditions: preincubation 120 min at 25° C.; ATP 150 μM; Crosstide 500 nM
Description: (§1) Preparation of AKT1 and AKT2 and measurement of in vitro inhibitory activity of the above-mentioned compounds against AKT1 and AKT2 kinase activity were carried out with reference to the method disclosed in Biochem. J. Vol. 385, pp 399-408 (2005). In the preparation of AKT1 and AKT2, human AKT1 and AKT2 to which a middle T antigen tag was added were expressed in Sf 9 insect cells, and then AKT1 and AKT2 were prepared following affinity purification and activation by PDK1. The prepared AKT1 and AKT2 were stored at −80° C. until the time of measurement of inhibitory activity of the compounds. In the measurement of inhibitory activity of the compounds, AKT1 or AKT2 and each compound of the present invention were preincubated at 25° C. for 120 minutes in a buffer solution for reaction (15 mM Tris-HCl pH 7.5, 0.01% Tween-20, 2 mM DTT). As a substrate, biotinylated Crosstide (bioton-KGSGSGRPRTSSFAEG), MgCl2, and ATP were added to final concentrations of 500 nM, 10 mM, and 150 μM, respectively, and reactions were carried out at 25° C. for 60 minutes. The reactions were stopped by adding EDTA to a final concentration of 80 mM. Then, a detection liquid in which an Eu-labeled anti-phosphorylation Crosstide antibody (PerkinElmer) and SureLight APC-SA (PerkinElmer) were contained at a final concentration of 0.5 nM and […], respectively, was added, and reactions were carried out at room temperature for 2 hours. Finally, the amount of fluorescence at the time of irradiation of excitation light having a wavelength of 337 nm was measured at dual wavelengths of 620 nm and 665 nm by PHERAstar FS (BMG LABTECH). The amount of phosphorylation was determined from the ratio of the fluorescence amounts at the dual wavelengths. The compound concentration at which phosphorylation can be inhibited by 50% was defined as […] (nM), and the results are shown in Table 4 below.

human AKT2 = human AKT2 (Homo sapiens (Human), UniProt P31751); experiment: AKT2 kinase activity inhibition (TR-FRET, biotinylated Crosstide substrate); type: biochemical; conditions: preincubation 120 min at 25° C.; ATP 150 μM; Crosstide 500 nM
Sequence of human AKT2 (P31751 whole entry): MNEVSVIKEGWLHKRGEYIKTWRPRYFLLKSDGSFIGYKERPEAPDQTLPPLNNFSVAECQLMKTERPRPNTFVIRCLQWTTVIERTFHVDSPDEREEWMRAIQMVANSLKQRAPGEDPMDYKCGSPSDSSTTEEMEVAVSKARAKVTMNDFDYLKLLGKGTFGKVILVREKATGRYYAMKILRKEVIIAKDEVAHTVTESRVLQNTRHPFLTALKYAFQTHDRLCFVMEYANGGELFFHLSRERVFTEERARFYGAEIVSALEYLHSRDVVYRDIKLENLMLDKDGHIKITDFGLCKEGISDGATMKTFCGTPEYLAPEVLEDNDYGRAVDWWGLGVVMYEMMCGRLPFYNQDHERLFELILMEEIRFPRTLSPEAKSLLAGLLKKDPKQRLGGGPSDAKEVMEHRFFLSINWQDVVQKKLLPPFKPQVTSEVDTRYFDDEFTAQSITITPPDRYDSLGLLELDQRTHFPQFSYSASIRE
Description: as §1

[1] = test system: AKT Ser473 phosphorylation; experiment: Phosphorylated AKT (Ser473) inhibitory activity in cultured cell A2780 (Meso Scale Discovery assay); type: cell-based; conditions: A2780 cells, 3 hours treatment; average±standard deviation of three independent runs
Description: (§2) To evaluate the inhibitory activity of the above compounds against AKT activity, AKT Ser 473 phosphorylation and phosphorylation of S6 ribosomal protein (S6RP) (a downstream factor of Akt signal) at Ser240/Ser244, which serve as indices for the activation status of AKT, were measured in extracts of cultured cells which had been treated with the above compounds. For the measurement, assays (manufactured by Meso Scale Discovery) utilizing electrochemiluminescence based on the ELISA principle were used for both AKT Ser473 and S6RP Ser240/Ser244.
(§3) In 10% FBS-containing RPMI1640 medium (Invitrogen), ovarian cancer-derived A2780 cells in the logarithmic growth phase were seeded at 4.5×10^4 cells/150 μL/well into polylysine coated 96-well flat-bottom plates, and cultured for one day in an incubator at 5% CO2, 37° C., and 100% humidity.
(§4) Each compound of the present invention was supplied as a stock solution prepared at a concentration of 10 mM in DMSO. Using this solution, a dilution series was prepared in DMSO solvent at 200-fold of the final concentrations (10, 3, 1, 0.3, 0.1, 0.03, 0.01, 0.003 μM). The day after the cells were seeded, the compound dilution series at a 200-fold concentration was diluted 50-fold in medium for cell culture. To each well of the aforementioned A2780 cell culture plates, 50 μL of the diluted compound dilution series was added. The plates were then placed back in the incubator, and the culture was continued for 3 hours at 5% CO2, 37° C., and 100% humidity.
(§5) Meso Scale Discovery's 96-Well Multi-Spot Phospho-AKT (Ser473) Assay (K151CAA-3) and Phospho (Ser240/244)/Total S6RP Assay (K11139D-2) were used. In advance, a necessary amount of the supplied cell extract buffer was dispensed, and protease inhibitor cocktail and protein phosphatase inhibitor cocktail were added thereto, and kept cold on ice. The culture plates of the cells cultured with the compounds for 3 hours were taken out and the medium was removed. 100 μL of the cell extract buffer kept cold was added per well, followed by extraction by shaking at 300 r.p.m. for 1 hour using a plate shaker while maintaining a temperature of 4° C. Using the obtained extracts at 40 μL/well for the Phospho-AKT (Ser473) Assay and at 15 μL/well for the Phospho(Ser240/244)/Total S6RP Assay, reactions were conducted at 4° C. overnight with shaking at 300 r.p.m. according to the document attached to the kits. The next day, after the wells were washed three times with the supplied wash buffer, 50 μL/well of SULFO-TAG™ sandwich antibody solution was added, and reactions were carried out at room temperature for 1 hour. The wells were washed with the wash buffer three times, and 150 μL of the supplied Read Buffer T was added to each well. The amounts of phosphorylation of AKT and S6RP were measured by a SECTOR Imager 6000 plate reader (manufactured by Meso Scale Discovery) within 30 minutes of the Read Buffer T addition.
(§6) The extraction buffer-only background was subtracted from all of the measurement values, and AKT and S6RP phosphorylation signals in the control cell extract treated with only DMSO were defined as 100%. The compound concentrations and the levels of phosphorylated AKT and S6PR (expressed as a percentage relative to the control) in each concentration were plotted, and IC50 concentration (nM) that achieves 50% inhibition of the control was determined.

[2] = test system: S6 ribosomal protein (S6RP) Ser240/Ser244 phosphorylation; experiment: Phosphorylated S6RP (Ser240/Ser244) inhibitory activity in cultured cell A2780 (Meso Scale Discovery assay); type: cell-based; conditions: A2780 cells, 3 hours treatment; average±standard deviation of three independent runs
Description: as §2, §3, §4, §5, §6

Sequence of human AKT1 (P31749 whole entry): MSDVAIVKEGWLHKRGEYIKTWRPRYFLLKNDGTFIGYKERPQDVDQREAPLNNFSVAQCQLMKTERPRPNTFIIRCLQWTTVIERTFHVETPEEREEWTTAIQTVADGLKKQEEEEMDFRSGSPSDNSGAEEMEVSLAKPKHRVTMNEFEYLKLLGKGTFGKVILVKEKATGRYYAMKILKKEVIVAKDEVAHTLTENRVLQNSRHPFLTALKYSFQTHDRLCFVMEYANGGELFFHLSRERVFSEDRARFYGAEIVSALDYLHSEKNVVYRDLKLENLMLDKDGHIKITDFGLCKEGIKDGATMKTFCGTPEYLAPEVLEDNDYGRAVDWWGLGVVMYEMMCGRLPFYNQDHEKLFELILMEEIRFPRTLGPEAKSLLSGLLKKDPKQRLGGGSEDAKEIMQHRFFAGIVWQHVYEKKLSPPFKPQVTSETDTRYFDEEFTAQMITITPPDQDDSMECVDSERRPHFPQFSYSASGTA

SMILES	IC50 (human AKT1) [nM]	IC50 (human AKT2) [nM]	IC50 [1] [nM]	IC50 [2] [nM]
N[C@]1(c2ccc(-c3nc4n(c3-c3ccncc3)COc3cccc(F)c3-4)cc2)C[C@](O)(C2CC2)C1 [Example 5, trans-3-amino-1-cyclopropyl-3-(4-(10-fluoro-3-(pyridin-4-yl)-5H-benzo[e]imidazo[1,2-c][1,3]oxazin-2-yl)phenyl)cyclobutanol]	22	0.91	85 ± 24	232 ± 53
CCONC(=O)c1ccc2c(c1)OCn1c-2nc(-c2ccc([C@]3(N)C[C@](C)(O)C3)cc2)c1-c1ccccc1 [Example 59, 2-(4-(trans-1-amino-3-hydroxy-3-methylcyclobutyl)phenyl)-N-ethoxy-3-phenyl-5H-benzo[e]imidazo[1,2-c][1,3]oxazine-8-carboxamide]	2.1	0.53	26 ± 3	42 ± 14
C[C@]1(O)C[C@@](N)(c2ccc(-c3nc4n(c3-c3ccccc3)COc3cccnc3-4)cc2)C1 [Example 28, trans-3-amino-1-methyl-3-(4-(3-phenyl-5H-imidazo[1,2-c]pyrido[2,3-e][1,3]oxazin-2-yl)phenyl)cyclobutanol]	11	2	81 ± 9	131 ± 28
CC[C@]1(O)C[C@@](N)(c2ccc(-c3nc4n(c3-c3ccccc3)COc3cccnc3-4)cc2)C1 [Example 30, trans-3-amino-1-ethyl-3-(4-(3-phenyl-5H-imidazo[1,2-c]pyrido[2,3-e][1,3]oxazin-2-yl)phenyl)cyclobutanol]	33	4.6	104 ± 27	174 ± 47
N[C@]1(c2ccc(-c3nc4n(c3-c3ccccc3)COc3ncccc3-4)cc2)C[C@](O)(C2CC2)C1 [Example 38, trans-3-amino-1-cyclopropyl-3-(4-(3-phenyl-5H-imidazo[1,2-c]pyrido[3,2-e][1,3]oxazin-2-yl)phenyl)cyclobutanol]	1.4	0.91	23 ± 4	34 ± 6
COc1ccc2c(c1)OCn1c-2nc(-c2ccc([C@]3(N)C[C@@](O)(C4CC4)C3)cc2)c1-c1ccccc1 [Example 18, trans-3-amino-1-cyclopropyl-3-(4-(8-methoxy-3-phenyl-5H-benzo[e]imidazo[1,2-c][1,3]oxazin-2-yl)phenyl)cyclobutanol]	3.7	0.6	52 ± 6	58 ± 10
CC1(O)CC(N)(c2ccc(-c3nc4n(c3-c3ccccc3)COc3ccncc3-4)cc2)C1 (stereo not drawn) [Example 32, trans-3-amino-1-methyl-3-(4-(3-phenyl-5H-imidazo[1,2-c]pyrido[3,4-e][1,3]oxazin-2-yl)phenyl)cyclobutanol]	6.6	1.1	40 ± 3	62 ± 23
N[C@]1(c2ccc(-c3nc4n(c3-c3ccccc3)COc3cccnc3-4)cc2)C[C@](O)(C2CC2)C1 [Example 27, trans-3-amino-1-cyclopropyl-3-(4-(3-phenyl-5H-imidazo[1,2-c]pyrido[2,3-e][1,3]oxazin-2-yl)phenyl)cyclobutanol]	11	1.6	66 ± 10	100 ± 17
C[C@]1(O)C[C@@](N)(c2ccc(-c3nc4n(c3-c3ccccc3)COc3cnccc3-4)cc2)C1 [Example 36, trans-3-amino-1-methyl-3-(4-(3-phenyl-5H-imidazo[1,2-c]pyrido[4,3-e][1,3]oxazin-2-yl)phenyl)cyclobutanol]	2	0.74	32 ± 6	36 ± 3
C[C@]1(O)C[C@@](N)(c2ccc(-c3nc4n(c3-c3ccccc3)COc3ccc(CO)cc3-4)cc2)C1 [Example 44, trans-3-amino-3-(4-(9-(hydroxymethyl)-3-phenyl-5H-benzo[e]imidazo[1,2-c][1,3]oxazin-2-yl)phenyl)-1-methylcyclobutanol]	2.2	0.55	33 ± 7	46 ± 17
CNC(=O)c1ccc2c(c1)OCn1c-2nc(-c2ccc([C@]3(N)C[C@](C)(O)C3)cc2)c1-c1ccccc1 [Example 56, 2-(4-(trans-1-amino-3-hydroxy-3-methylcyclobutyl)phenyl)-N-methyl-3-phenyl-5H-benzo[e]imidazo[1,2-c][1,3]oxazine-8-carboxamide]	1.8	0.49	25 ± 3	38 ± 12
N[C@]1(c2ccc(-c3nc4n(c3-c3ccccc3)COc3ccccc3-4)cc2)C[C@](O)(C2CC2)C1 [Example 11, trans-3-amino-1-cyclopropyl-3-(4-(3-phenyl-5H-benzo[e]imidazo[1,2-c][1,3]oxazin-2-yl)phenyl)cyclobutanol]	3.9	1	63 ± 15	83 ± 27
N[C@]1(c2ccc(-c3nc4n(c3-c3ccccc3)COc3cccc(F)c3-4)cc2)C[C@](O)(C2CC2)C1 [Example 1, trans-3-amino-1-cyclopropyl-3-(4-(10-fluoro-3-phenyl-5H-benzo[e]imidazo[1,2-c][1,3]oxazin-2-yl)phenyl)cyclobutanol]	3.7	0.29	24 ± 1	40 ± 13
N[C@]1(c2ccc(-c3nc4n(c3-c3ccccc3)COc3cnccc3-4)cc2)C[C@](O)(C2CC2)C1 [Example 35, trans-3-amino-1-cyclopropyl-3-(4-(3-phenyl-5H-imidazo[1,2-c]pyrido[4,3-e][1,3]oxazin-2-yl)phenyl)cyclobutanol]	1.6	0.48	24 ± 3	33 ± 8
C[C@]1(O)C[C@@](N)(c2ccc(-c3nc4n(c3-c3ccccc3)COc3ccc(-c5ccn[nH]5)cc3-4)cc2)C1 [Example 48, trans-3-amino-1-methyl-3-(4-(3-phenyl-9-(1H-pyrazol-5-yl)-5H-benzo[e]imidazo[1,2-c][1,3]oxazin-2-yl)phenyl)cyclobutanol]	0.8	0.32	48 ± 5	86 ± 27
COc1cccc2c1-c1nc(-c3ccc([C@]4(N)C[C@@](O)(C5CC5)C4)cc3)c(-c3ccccc3)n1CO2 [Example 16, trans-3-amino-1-cyclopropyl-3-(4-(10-methoxy-3-phenyl-5H-benzo[e]imidazo[1,2-c][1,3]oxazin-2-yl)phenyl)cyclobutanol]	4.8	0.35	31 ± 5	38 ± 7
